Results: US10524472B2, “Elicitor peptides having disrupted hypersensitive response box and use thereof” (Plant Health Care, Inc., priority 2014, dated 2020)
Marks after values point to notes of the source that are not given here.

Assays:
Assay type in all cases: in vivo
[1] = test system: soybean seeds; assay: Root & shoot growth analysis after seed soak, soy; settings: for Root (root growth index, percentage increase over untreated control) / Shoot (shoot length, percentage increase over untreated control): soy, 12-14 days
Method: Peptides were tested for biological effects on the allocation of growth resources to the shoot (above ground) and root (below ground). Peptides were dissolved at 0.2, 2, or 5 μg/ml in a total volume of 100 ml deionized water. Corn or soybean seeds were then soaked for one hour in the peptide solution. Untreated control (UTC) plants were soaked in deionized water. Clear plastic 300 ml beverage cups (Solo®, Dart Container Corporation) were prepared for planting by marking the bottom with a cross, dividing the bottom into four equal quadrants. The cups were then filled with Sunshine Mix #1 soil (SunGro Horticulture) sieved to ¼″. 100 ml of water was added to the soil. Treated seeds were then planted by pressing the seed lightly into the top of the soil. The seeds were then covered with an additional 50 ml of loose soil. Seeds were allowed to germinate and grow for 12-14 days.
The length of the shoot was measured as the distance from the soil to the lightly stretched tip of the highest leaf for each plant. […] Stunting was defined as lacking a fully expanded true leaf at time of data collection or having an expanded true leaf judged by eye to be <½ the average leaf area of the treatment group. Generally, 30 seeds were planted per treatment group and 15-25 plants were used for data collection.
Root growth was estimated by counting the number of times that a primary root crosses the quadrant marks on the bottom of the cup. These were often observed along the bottom circumference of the cup, although some were visible along the side of the container and were counted as if crossing a vertical extension of the quadrant line. This number was divided by 4 to produce a root growth index.
Each number indicates the percentage increase over the untreated control values.

[2] = test system: tobacco mosaic virus (TMV); assay: Induction of resistance to tobacco mosaic virus in tobacco; settings: for TMV response / effectiveness against TMV infection (summary of Table 22): foliar spray; for Effectiveness Covered (%) (decline in TMV lesions vs UTC, systemic response) / Effectiveness Uncovered (%) (decline in TMV lesions vs UTC, local response): TMV 3 days post-treatment, scored 3 days after inoculation
[3] = test system: Soy plants; assay: Growth tests after foliar spray, soy; settings: for Dry biomass increase (%) / Growth increase (%) / Fresh mass increase (%): soy, 14 days; for growth, dry biomass and fresh mass (text summary of Table 21): foliar spray
Method: Soy seeds (or corn seeds, as indicated) were planted in flats with 2 seeds per cell within the flat at a greenhouse facility. The seeds were allowed to germinate and the smaller plant is culled, leaving one plant per cell. Once the first true leaves are fully expanded and the second leaves are beginning to expand, the plants were initially measured for height. This was performed by stretching the highest leaf upward and measuring the distance to the soil. Peptides were dissolved in water at the indicated concentrations (Table 21 below). The plants were then treated with a foliar spray using widely available spray bottles until liquid was dripping from the leaves. Six flats of 14 plants each were treated per condition (peptide or control). Designated untreated control plants were sprayed with water. The plants were allowed to grow for 14 days. The height of the plants was again measured and compared to the original height to quantify growth. Finally, the plants were harvested by removing the shoots (all above-ground material). For some experiments, this was weighed upon harvesting to determine the fresh mass (including water weight). The shoots were then dried at 70° C. for 72 hours, and again weighed to determine dry biomass. Although this method uses a similar measure (growth) as in Example 3 above, the treatment method is different (seed soak vs. foliar spray). As a result, the experimental outcomes may diverge.

Sequence | TMV response / effectiveness against TMV infection (summary of Table 22) [2] | Effectiveness Covered (%) (decline in TMV lesions vs UTC, systemic response) ([2]; spray 10 ug/ml) | Effectiveness Uncovered (%) (decline in TMV lesions vs UTC, local response) ([2]; spray 10 ug/ml) | Dry biomass increase (%) ([3]; foliar spray 5.0 ug/ml) | Growth increase (%) ([3]; foliar spray 5.0 ug/ml) | Effectiveness Covered (%) (decline in TMV lesions vs UTC, systemic response) ([2]; spray 20 ug/ml) | Effectiveness Uncovered (%) (decline in TMV lesions vs UTC, local response) ([2]; spray 20 ug/ml) | other results
SQGISEKQLDQLLSQLIQASLQP (P4-14S-20S) | weaker TMV responses | −45% | 59* % | – | – | – | – | shoot growth (Table 20) ([1]; seed soak, p14a soy at 0.2 μg/ml): increased shoot growth; Root (root growth index, percentage increase over untreated control) ([1]; seed soak 5.0 μg/ml): 2.2%; Shoot (shoot length, percentage increase over untreated control) ([1]; seed soak 5.0 μg/ml): 5.8%*
SQGISEKQLDQDLSQLIQALLQP (P4-14S-12D) | produced the best results | – | – | −3.6% | −4.2% | – | – | Effectiveness Covered (%) (decline in TMV lesions vs UTC, systemic response) ([2]; spray 5.0 ug/ml): 60* %; Effectiveness Uncovered (%) (decline in TMV lesions vs UTC, local response) ([2]; spray 5.0 ug/ml): 61* %
SEEEEELEQLLEDLVKLL (P14-32) | – | – | – | 14% | 12.5% | 82* % | 90* % | growth, dry biomass and fresh mass (text summary of Table 21) [3]: increases in growth and dry biomass; Dry biomass increase (%) ([3]; foliar spray 0.2 ug/ml): 6.8%; Fresh mass increase (%) ([3]; foliar spray 0.2 ug/ml): 2.9%; Growth increase (%) ([3]; foliar spray 0.2 ug/ml): 9.5%; Dry biomass increase (%) ([3]; foliar spray 2.0 ug/ml): 8.2%; Fresh mass increase (%) ([3]; foliar spray 2.0 ug/ml): 27.6%; Growth increase (%) ([3]; foliar spray 2.0 ug/ml): 1.7%; Fresh mass increase (%) ([3]; foliar spray 5.0 ug/ml): 33.3%
SQGISEKQLDQLLSQSIQALLQP (P4-14S-16S) | – | 46% | 72* % | – | – | – | – | root growth (text summary of Table 20) ([1]; seed soak, listed as P4-14s-16s): strong shift in resource allocation to root growth; root growth (text summary of Table 20) ([1]; seed soak, listed as p4-14s-16s): Increased root growth; Root (root growth index, percentage increase over untreated control) ([1]; seed soak 0.2 μg/ml): 28.3%; Shoot (shoot length, percentage increase over untreated control) ([1]; seed soak 0.2 μg/ml): −2.0%; Root (root growth index, percentage increase over untreated control) ([1]; seed soak 2.0 μg/ml): 28.3%*; Shoot (shoot length, percentage increase over untreated control) ([1]; seed soak 2.0 μg/ml): −11.3%
QAGPQSANKTGNVDDANNQDPMQALMQLL (P14-dc4) | reduced effectiveness against TMV infection | 19% | 34% | −7.6% | −17% | – | – | growth, dry biomass and fresh mass (text summary of Table 21) [3]: lose the significant growth, dry biomass, and fresh mass benefits; Dry biomass increase (%) ([3]; foliar spray 0.2 ug/ml): 5.6%; Fresh mass increase (%) ([3]; foliar spray 0.2 ug/ml): 7.5%; Growth increase (%) ([3]; foliar spray 0.2 ug/ml): 2.6%; Dry biomass increase (%) ([3]; foliar spray 2.0 ug/ml): −1.6%; Fresh mass increase (%) ([3]; foliar spray 2.0 ug/ml): 0.4%; Growth increase (%) ([3]; foliar spray 2.0 ug/ml): −4.6%; Fresh mass increase (%) ([3]; foliar spray 5.0 ug/ml): −15.4%
KPNDSQSNIAKLISALI (P15-62) | – | – | – | – | – | −122% | 94* % | –
SQGISEKQLDQLLSQLI (P4-111) | – | 65% | 58% | – | – | – | – | –
SEEEEEEEIAKLISALIESLL (P15-60) | – | – | – | – | – | 13% | 55% | –
SEEEEELKALLKSIARLL (P19min-13S) | poor immune activation | – | – | – | – | −70% | 35% | TMV response / effectiveness against TMV infection (summary of Table 22) ([2]; listed as P19 min-135): weaker TMV responses
QAGPQSANKTGNVDDANNQDPMQALMQLLEDL (P14-dc1) | – | 46% | 65* % | – | – | – | – | –
